What is called melting point is the temperature of the solid-liquid transition.

Consider twelve molecules from US7101885B2, “Piperazinyl-aryloxy and piperazinyl-heteroaryloxy-n-aryl lactams” (Pfizer Inc, priority 2003, dated 2006).

Structures are written as SMILES. Where a name gives a salt, the structure may show the parent alone.

As for `CN1CCN(c2ncccc2OC2CCN(c3ccc(C4CCOCC4)cc3)C2=O)CC1` (stereo not drawn) (as salt: salt) [Example 17, 3-[2-(4-Methyl-piperazin-1-yl)-pyridin-3-yloxy]-1-[4-(tetrahydro-pyran-4-yl)-phenyl]-pyrrolidin-2-one], the melting point was in the range of 219 to 248 °C.

In turn, `CN1CCN(c2ccccc2OC2CCN(c3ccc(C(F)(F)F)cc3)C2=O)CC1.Cl` (stereo not drawn) displayed a melting point of 137 to 162 °C.

In turn, `CN1CCN(c2ccccc2OC2CCCN(c3ccc(N4CCOC4=O)cc3)C2=O)CC1` (stereo not drawn) [Example 6, 3-[2-(4-Methyl-piperazin-1-yl)-phenoxy]-1-[4-(2-oxo-oxazolidin-3-yl)-phenyl]-piperidin-2-one] had a melting point of 71 to 88 °C.

The molecule `CN1CCN(c2ncccc2OC2CCN(c3ccc(Br)cc3)C2=O)CC1` (stereo not drawn) (as salt: hydrochloride) [Example 8, 1-(4-Bromo-phenyl)-3-[2-(4-methyl-piperazin-1-yl)-pyridin-3-yloxy]-pyrrolidin-2-one] registered a melting point of 72 to 82 °C.

Take `CN1CCN(c2ncccc2OC2CCN(c3ccc(N4CCCCC4=O)cc3)C2=O)CC1` (stereo not drawn) [Example 11, 1-(4-{3-[2-(4-Methyl-piperazin-1-yl)-pyridin-3-yloxy]-2-oxo-pyrrolidin-1-yl}-phenyl)-piperidin-2-one]: the melting point lay within 111 to 149 °C.

Take `CN1CCN(c2ccccc2OC2CCCN(c3ccc(C(F)(F)F)cc3)C2=O)CC1` (stereo not drawn) [Example 7, 3-[2-(4-Methyl-piperazin-1-yl)-phenoxy]-1-(4-trifluoromethyl-phenyl)-piperidin-2-one]: the melting point lay within 81 to 110 °C.

Regarding `CN1CCN(c2ncccc2OC2CCN(c3ccc(-c4ccon4)cc3)C2=O)CC1` (stereo not drawn) (as salt: salt) [Example 21, 1-[4-(3-Isoxazolyl)-phenyl]-3-[2-(4-methyl-piperazin-1-yl)-pyridin-3-yloxy]-pyrrolidin-2-one], the melting point was found to be 220 °C.

Molecule `CN1CCN(c2ccccc2OC2CCCN(c3ccc(N4CCCC4=O)cc3)C2=O)CC1` (stereo not drawn) [Example 5, 3-[2-(4-Methyl-piperazin-1-yl)-phenoxy]-1-[4-(2-oxo-pyrrolidin-1-yl)-phenyl]-piperidin-2-one] gave a melting point of 68 to 75 °C.

Take `CN1CCN(c2ccccc2OC2CCN(c3ccc(N4CCCC4=O)cc3)C2=O)CC1` (stereo not drawn) [Example 3, 3-[2-(4-Methyl-piperazin-1-yl)-phenoxy]-1-(4-(2-oxo-pyrrolidin-1-yl)-phenyl)-pyrrolidin-2-one]: the melting point lay within 164 to 180 °C.

Regarding `CN1CCN(c2ncccc2OC2CCN(c3ccc(C(C)(C)C)cc3)C2=O)CC1` (stereo not drawn) (as salt: salt) [Example 9, 1-(4-tert-Butyl-phenyl)-3-[2-(4-methyl-piperazin-1-yl)-pyridin-3-yloxy]-pyrrolidin-2-one], the melting point is 131 to 164 °C.

In the case of `CN1CCN(c2ncccc2OC2CCN(c3ccc(OC(F)(F)F)cc3)C2=O)CC1` (stereo not drawn) (as salt: salt) [Example 16, 1-[4-(Trifluoromethoxy)-phenyl]-3-[2-(4-methyl-piperazin-1-yl)-pyridin-3-yloxy]-pyrrolidin-2-one], the melting point was 113 to 140 °C.

For `CC(C)Oc1ccc(N2CCC(Oc3cccnc3N3CCN(C)CC3)C2=O)cc1` (stereo not drawn) (as salt: salt) [Example 15, 1-[4-(Isopropoxy)-phenyl]-3-[2-(4-methyl-piperazin-1-yl)-pyridin-3-yloxy]-pyrrolidin-2-one], the melting point was 93 to 120 °C.
